Reference: PMC3349093, “Immobilized Horseradish Peroxidase on Discs of Polyvinyl Alcohol-Glutaraldehyde Coated with Polyaniline” (The Scientific World Journal, 2012)

System: T1, soluble HRP (horseradish peroxidase)
T1 construct: gene PRXC1A; soluble (free) enzyme, gift of Dr. Elba Bon (UFRJ)
Test: spectrophotometric, purpurogallin formation at […] nm, nonlinear hyperbolic fit
Format: biochemical, Armoracia rusticana
Settings: soluble enzyme; co-substrate H2O2 (0.25 mL of 5 mM); pyrogallol 4.0-48.7 mM; 28 °C; pH of kinetics not clearly stated (4.5 or 7.0)

Km: 5.47 ± 0.71 mM
Structure (SMILES): Oc1cccc(O)c1O [pyrogallol]
